According to ChEMBL document CHEMBL6087461, “Cell-Permeable Peptide Inhibitors of the p53-hDM2 Interaction via Foldamer Helix Mimicry and Bis-Thioether Stapling” (J Med Chem, 2025):
Starred links: 1 amine or outer side, 2 acyl side, 3 side chain; linkers in the order of their positions; H or OH if unused. Positions of bridges follow the written chain, without caps; N, C: chain ends. Residues, ends and D or L forms follow the SMILES beside them. *: point of attachment. X1 = CC(C)[C@@H](CNC(N)=O)NC(=O)NC[C@H](C)NC(=O)NC[C@H](CSCCCCCC[*:1])N[*:2]; X6 = CC(C)[C@@H](CNC(N)=O)NC(=O)NC[C@H](CSCCCCCC[*:1])NC(=O)NC[C@H](C)N[*:2]; X10 = CC(C)[C@@H](CNC(N)=O)NC(=O)NC[C@H](CSCCC[*:1])NC(=O)NC[C@H](C)N[*:2]; X3 = CC(C)[C@@H](CNC(N)=O)NC(=O)NC[C@H](C)NC(=O)NC[C@H](C)N*; CH2CONHCH2CH2NHCOCH2 = O=C(C[*:1])NCCNC(=O)C[*:2]; X11 = C(CCC[*:2])CC[*:1]

Tests used:
[1] = biological target: Tumour suppressor p53/oncoprotein Mdm2 (Homo sapiens) (UniProt P04637+Q00987); test: PROTAC activity at human MDM2/p53 extracted from Escherichia coli interaction by measuring inhibition of interaction at 100 nM by time-resolved fluorescence energy transfer (TRFRET) detection method relative to control; type: protein assay
[2] = biological target: Tumour suppressor protein p53/Mdm4 (Homo sapiens) (UniProt P04637+O15151); test: PROTAC activity at human DMX/p53 extracted from Escherichia coli interaction at 100 nM by measuring inhibition of interaction by time-resolved fluorescence energy transfer (TRFRET) detection method relative to control; type: protein assay
Chain of Tumour suppressor protein p53/Mdm4 (Homo sapiens) (O15151 whole entry, looked up): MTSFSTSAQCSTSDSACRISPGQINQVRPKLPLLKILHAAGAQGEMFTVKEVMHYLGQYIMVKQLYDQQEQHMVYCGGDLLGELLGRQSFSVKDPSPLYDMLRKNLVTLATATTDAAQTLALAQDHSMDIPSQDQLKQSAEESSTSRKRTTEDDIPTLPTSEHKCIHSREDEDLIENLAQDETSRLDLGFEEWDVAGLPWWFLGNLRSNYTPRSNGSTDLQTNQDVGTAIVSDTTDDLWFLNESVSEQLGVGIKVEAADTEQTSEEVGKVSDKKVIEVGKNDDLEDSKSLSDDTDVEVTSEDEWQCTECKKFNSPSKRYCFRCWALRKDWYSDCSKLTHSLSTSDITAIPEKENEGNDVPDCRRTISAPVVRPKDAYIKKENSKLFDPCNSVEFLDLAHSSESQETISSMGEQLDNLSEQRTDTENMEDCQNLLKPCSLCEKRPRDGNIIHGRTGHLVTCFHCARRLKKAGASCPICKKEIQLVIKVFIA
Chain of Tumour suppressor protein p53/Mdm4 (Homo sapiens) (P04637 whole entry, looked up): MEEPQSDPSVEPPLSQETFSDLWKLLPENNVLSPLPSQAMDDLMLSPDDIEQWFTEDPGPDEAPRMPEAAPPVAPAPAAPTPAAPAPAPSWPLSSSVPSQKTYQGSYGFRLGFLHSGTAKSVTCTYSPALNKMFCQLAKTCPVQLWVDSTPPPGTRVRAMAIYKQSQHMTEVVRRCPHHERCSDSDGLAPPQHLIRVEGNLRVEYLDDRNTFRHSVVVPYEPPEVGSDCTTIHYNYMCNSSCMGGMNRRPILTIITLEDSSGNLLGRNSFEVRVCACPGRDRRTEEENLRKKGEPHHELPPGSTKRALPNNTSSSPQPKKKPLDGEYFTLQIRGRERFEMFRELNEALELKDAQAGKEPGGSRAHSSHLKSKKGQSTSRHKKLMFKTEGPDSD

Chain of Tumour suppressor p53/oncoprotein Mdm2 (Homo sapiens) (P04637 whole entry, looked up): as above
Chain of Tumour suppressor p53/oncoprotein Mdm2 (Homo sapiens) (Q00987 whole entry, looked up): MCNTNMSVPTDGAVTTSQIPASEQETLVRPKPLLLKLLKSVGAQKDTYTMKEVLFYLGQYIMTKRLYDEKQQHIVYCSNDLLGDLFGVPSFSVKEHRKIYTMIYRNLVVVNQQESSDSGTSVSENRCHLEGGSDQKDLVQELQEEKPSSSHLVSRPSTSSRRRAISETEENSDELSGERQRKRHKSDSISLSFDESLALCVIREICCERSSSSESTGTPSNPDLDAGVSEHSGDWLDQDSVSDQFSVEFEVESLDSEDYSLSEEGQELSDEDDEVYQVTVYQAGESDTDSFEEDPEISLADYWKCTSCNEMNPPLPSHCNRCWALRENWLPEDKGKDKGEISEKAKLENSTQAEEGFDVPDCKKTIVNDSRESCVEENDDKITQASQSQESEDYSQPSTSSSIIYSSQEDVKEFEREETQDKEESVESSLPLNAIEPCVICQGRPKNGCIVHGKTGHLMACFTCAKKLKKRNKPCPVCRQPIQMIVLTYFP

Row | Structure (SMILES) | inhibition [1] [%] | inhibition [2] [%]
1 | CC(C)[C@@H](CNC(N)=O)NC(=O)NC[C@H](C)NC(=O)NC[C@H](C)NC(=O)[C@H](Cc1c[nH]c2ccccc12)NC(=O)[C@H](Cc1ccc(O)cc1)NC(=O)[C@@H]1CSCCCCCCSC[C@H](NC(=O)[C@@H](N)[C@@H](C)O)C(=O)N[C@@H](Cc2ccccc2)C(=O)N[C@@H](C)C(=O)N1 (H-TCFACYW-X3; linker 2-5 via X11) | 36 | 14
2 | CC(C)[C@@H](CNC(N)=O)NC(=O)NC[C@H](C)NC(=O)NC[C@@H]1CSCCCCCCSC[C@H](NC(=O)[C@H](Cc2ccccc2)NC(=O)[C@H](CO)NC(=O)[C@@H](N)[C@@H](C)O)C(=O)N[C@@H](CCC(N)=O)C(=O)N[C@@H](Cc2ccc(O)cc2)C(=O)N[C@@H](Cc2c[nH]c3ccccc23)C(=O)N1 (H-TSFCQYW; linker 4-C via X1) | 85 | 36
3 | CC(C)[C@@H](CNC(N)=O)NC(=O)NC[C@@H]1CSCCCSC[C@H](NC(=O)[C@H](C)NC(=O)[C@H](Cc2ccccc2)NC(=O)[C@H](CO)NC(=O)[C@@H](N)[C@@H](C)O)C(=O)N[C@@H](Cc2ccc(O)cc2)C(=O)N[C@@H](Cc2c[nH]c3ccccc23)C(=O)N[C@@H](C)CNC(=O)N1 (H-TSFACYW; linker 5-C via X10) | 15 | 4
4 | CC(C)[C@@H](CNC(N)=O)NC(=O)NC[C@H](C)NC(=O)NC[C@@H]1CSCCCCCCSC[C@H](NC(=O)[C@H](Cc2ccccc2)NC(=O)[C@H](CO)NC(=O)[C@@H](N)[C@@H](C)O)C(=O)N[C@@H](CCCNC(=N)N)C(=O)N[C@@H](Cc2ccc(O)cc2)C(=O)N[C@@H](Cc2c[nH]c3ccccc23)C(=O)N1 (H-TSFCRYW; linker 4-C via X1) | 42 | 2
5 | CC(C)[C@@H](CNC(N)=O)NC(=O)NC[C@@H]1CSCCCCCCSC[C@H](N)C(=O)N[C@@H](CO)C(=O)N[C@@H](Cc2ccccc2)C(=O)N[C@@H](C)C(=O)N[C@@H](CCC(=O)O)C(=O)N[C@@H](Cc2ccc(O)cc2)C(=O)N[C@@H](Cc2c[nH]c3ccccc23)C(=O)N[C@@H](C)CNC(=O)N1 (H-CSFAEYW; linker 1-C via X6) | 70 | 54

Results, then the compound that gave them:

Row | inhibition [1] [%] | inhibition [2] [%] | Structure (SMILES)
6 | 50 | 23 | CC(C)[C@@H](CNC(N)=O)NC(=O)NC[C@H](C)NC(=O)NC[C@H](C)NC(=O)[C@H](Cc1c[nH]c2ccccc12)NC(=O)[C@H](Cc1ccc(O)cc1)NC(=O)[C@@H]1CSSC[C@H](NC(=O)[C@@H](N)[C@@H](C)O)C(=O)N[C@@H](Cc2ccccc2)C(=O)N[C@@H](C)C(=O)N1 (H-TCFACYW-X3; disulfide 2-5)
7 | 83 | 47 | CC(C)[C@@H](CNC(N)=O)NC(=O)NC[C@H](C)NC(=O)NC[C@H](C)NC(=O)[C@H](Cc1c[nH]c2ccccc12)NC(=O)[C@H](Cc1ccc(O)cc1)NC(=O)[C@@H]1CSCC(=O)NCCNC(=O)CSC[C@H](N)C(=O)N[C@@H](CO)C(=O)N[C@@H](Cc2ccccc2)C(=O)N[C@@H](C)C(=O)N1 (H-CSFACYW-X3; linker 1-5 via CH2CONHCH2CH2NHCOCH2)
8 | 15 | 1 | CC(C)[C@@H](CNC(N)=O)NC(=O)NC[C@H](C)NC(=O)NC[C@H](C)NC(=O)[C@H](Cc1c[nH]c2ccccc12)NC(=O)[C@H](Cc1ccc(O)cc1)NC(=O)[C@@H]1CSCCCCCCSC[C@H](N)C(=O)N[C@@H](CO)C(=O)N[C@@H](Cc2ccccc2)C(=O)N[C@@H](C)C(=O)N1 (H-CSFACYW-X3; linker 1-5 via X11)
9 | 20 | -4 | CC(C)[C@@H](CNC(N)=O)NC(=O)NC[C@H](C)NC(=O)NC[C@H](C)NC(=O)[C@H](Cc1c[nH]c2ccccc12)NC(=O)[C@H](Cc1ccc(O)cc1)NC(=O)[C@@H]1CSSC[C@H](N)C(=O)N[C@@H](CO)C(=O)N[C@@H](Cc2ccccc2)C(=O)N[C@@H](C)C(=O)N1 (H-CSFACYW-X3; disulfide 1-5)
